These results are taken from US12065512B2, “Cyclic peptide and a medicament, external preparation and cosmetic comprising said cyclic peptide” (Igisu Co., Ltd., priority 2015, dated 2024).

Entries after “also recorded” stand apart in the source; their conditions may differ. Positions of bridges follow the written chain, without caps; N, C: chain ends. No end group written: not given here.

What all share (type): in vivo, human
The test system of one assay is nasal cavity. The experiment in a line: Cyclic peptides with amino acid replacement: nasal effect (formulations A to E = 3, 15, 30, 100, 500 μg/ml in physiological saline, 0.1 ml). To be noted: formulation C (30 μg/ml in physiological saline), once a day, 0.1 ml applied to each nasal cavity; subject with allergic rhinitis. Here is the method: (§1) Next, cyclic peptides with some replaced amino acid were subjected to following examination in order to confirm their effect. The methods for preparing the above cyclic peptide and confirming amino acid sequence of the prepared peptide were same as the method for preparing the cyclic peptide as described above and Mass spectroscopy method.
9.3 Confirming Nasal Effect
The obtained cyclic peptide was prepared in physiological saline at 3, 15, 30, 100 or 500 μg/ml, and 0.1 ml each was applied to nasal cavity. Each of formulations A to E in the table indicates the concentration of the cyclic peptide at 3, 15, 30, 100 or 500 μg/ml, respectively. The absence of the effect upon the application of physiological saline without the peptide confirmed the effect was not a placebo effect.

The subject of assay [1] is normal subjects who had symptoms of roughened lips. Briefly: Mucosal condition of roughened lips upon application of B ring gel formulation. To be noted: 1 application. Here is the method: The B ring gel formulation was applied to normal subjects who had symptoms of roughened lips, and changes in mucosal condition were observed (Table below). The changes in mucosal conditions were determined based on physical sensory evaluation by the subject and our objective observation as physicians.

Assay [2] relates to skin conditions of subjects. Briefly: Skin-improving (cosmetic) effect of gel formulation applied to face. As for the experimental part:
4.1.1 Confirming Skin-Improving Effect (Comparing B Ring Gel Formulation to BNP Gel Formulation)
The B ring gel formulation or BNP gel formulation was applied to subjects. The B ring gel formulation was applied on the right cheek or eye of each subject, the BNP gel formulation on the left cheek or eye, and changes in skin conditions were observed and compared (Table below). The changes in skin conditions were determined based on physical sensory evaluation by the subject and our objective observation as physicians.
Table below summarizes examples in which B ring gel formulation was applied without applying two-sided. The changes in skin conditions were determined by similar method as described above.
4.1.2 Confirming Skin-Improving Effect (Comparing B Ring Gel Formulation to Gel Base)
In order to examine the presence or absence of the contribution by the gel base to the effects of B ring gel formulation and BNP gel formulation, three subjects were administered B ring gel formulation on their right face and the gel base on the left, and changes in skin conditions on the subject's faces were observed (Table below).

Assay [3] relates to skin condition of the subjects. The experiment in a line: Skin condition upon using bath agent comprising B ring. To be noted: bath in 37 to 41° C. hot water with 0.01 μM, once a day for 14 days. Here is the method:
4.4 Observation on Skin Condition Upon Using Bath Agent Comprising B Ring
Subjects were given bath in 37 to 41° C. hot water comprising B ring dissolved at 0.01 μM (100 ml of 20 μM B ring solution dissolved in 200 L hot water) once a day for 14 days, and skin condition of the subjects was compared to the case of hot water alone (Table 14). The changes in skin conditions were determined based on physical sensory evaluation by the subject and our objective observation as physicians.

Assay [4] concerns symptoms associated to various alopecia. Briefly: Therapeutic effect on alopecia: gel formulation applied to decalvant site. The conditions noted are these: 1 μmol, 1 application/day, continued; male alopecia, right side. Here is the method:
5. Confirming Therapeutic Effect on Alopecia Either B ring gel formulation or BNP gel formulation was applied, and their effects on symptoms associated to various alopecia were observed (Table below). The changes in symptoms were determined based on physical sensory evaluation by the subject and our objective observation as physicians.

The test system of assay [5] is normal subjects who had symptoms of scalp/hair. Briefly: Scalp/hair condition upon application of B ring gel formulation. Here is the method:
4.3 Observation on scalp/hair condition upon application of B ring gel formulation. The B ring gel formulation was applied to normal subjects who had symptoms of scalp/hair, and changes in conditions of scalp and hair were observed (Table below). The changes in scalp/hair were determined based on physical sensory evaluation by the subject and our objective observation as physicians.

In assay [6] the test system is subjects suffering various dermatitis. Briefly: B ring gel formulation versus gel base by two-sided application in dermatitis. To be noted: right side B ring, left side gel base; atopic dermatitis or chronic eczema. The text has this: 3.2 Comparing B Ring Gel Formulation to Gel Base by Two-Sided Application For subjects suffering various dermatitis, either B ring gel formulation or the gel base was applied to the affected site, and changes in symptoms before and after the application were observed (Table below).

In the next assay the test system is skin, affected site. The experiment in a line: Cyclic peptides with amino acid replacement: effects on skin (formulations A to E = 3, 15, 30, 100, 500 μg/ml in purified water). Here is the method: as §1
9.2 Confirming Effects on Skin
The obtained cyclic peptide was prepared in purified water at 3, 15, 30, 100 or 500 μg/ml and applied to affected site. Each of formulations A to E in the table indicates the concentration of the cyclic peptide at 3, 15, 30, 100 or 500 μg/ml, respectively. The absence of the effect upon the application of purified water without the peptide confirmed the effect was not a placebo effect.

Where [7] appears, read: formulation C = 30 μg/ml cyclic peptide in purified water, applied to affected site, one line per subject (ID Q..), diagnosis and treatment as in the table line.

For “SEQ ID NO 34 (CFGRKMDRISSSSGVGC; disulfide 1-17)”, the Itches after application entry in the assay with nasal cavity was “No irritating symptoms”.
With “Cys-Phe-Gly-Arg-Lys-Met-Asp-Arg-Ile-Ser-Ser-Ser-Ser-Gly-Leu-Gly-Cys (CFGRKMDRISSSSGLGC; disulfide 1-17; ends not checked) [B ring]”, the “Post-application symptoms (lips, mucosal condition)” value is 3 min after application, lips became moisturized in assay [1] (0.5 μmol); 2 min after application, cracks on mouth corner were remitted and Skin became moisturized soon after application. After 2 min, in assay [1] (1 μmol); “After 2 min, lips were full and soft, and wrinkles were less; also recorded: After 2 min, lips were full, soft and moisturized, and wrinkles” in assay [1] (2 μmol). Moreover, the “Skin-improving effect, summary” value in assay [2] (compared to site where BNP gel formulation had been applied, FIG. 1) is “has a skin moisturizing effect and is capable of improving skin texture”. The “Post-application symptoms (skin condition)” value in assay [2] (concentration not printed (about 1 μM), right face, gel base on the left) was 1 min after application, skin tingling sensation. Moreover, in assay [3], the “Changes in subjective symptoms” value is “Remission of itch and pain; also recorded: Relief of pain; also recorded: Itches after bath was remitted”. The Post-application symptoms result was “ameliorating effect on miliaria, cracked or chapped skin; also recorded: Remission of desiccatinn; also recorded: Remission of flare and milaria; also recorded: Cracks gradually became; also recorded: Gradual remission of erythema” in assay [3]; “Flare remitted soon after application. After; also recorded: Flare started to fade soon after application,; also recorded: Flare remitted soon after application,; also recorded: Flare and pigmentation removed 2.5 min after” in assay [6]. The “Post-application symptoms (alopecia)” value in assay [4] is 7 weeks after application, hair became elastic and formulation exhibited more remarkable hair-. Moreover, the “Post-application symptoms (scalp/hair)” value is “Hair growth was stimulated, and an increase in hair volume” in assay [5] (1 μmol, 1 application/day (5 days, 3 weeks or continued), daily for 3 weeks); “A decrease in falling hair was observed, showing an effect” in assay [5] (1 μmol, 1 application/day (5 days, 3 weeks or continued), daily for 5 days); “growth was stimulated, improving thinning of hair” in assay [5] (1 μmol, 1 application/day (5 days, 3 weeks or continued), daily, continued post partum); “After 2 min, itches were removed, scalp seborrhea and; also recorded: After 1 min. itches were removed. After 2 min, scalp; also recorded: After 2 min, itches were removed, scalp seborrhea was improved” in assay [5] (2 μmol, 1 application).
In the case of “SEQ ID NO 74 (CFSRRMDRISSSTGLAC; disulfide 1-17)”, the “Diagnostic impression on skin after application” value is “Iches were eliminated immediately after” in the assay on skin, affected site (chronic eczema, formulation D (100 μg/ml in purified water), once a day); “After 1 minute, rawness and hot flash” in the assay on skin, affected site (roughened skin, formulation C (30 μg/ml in purified water), once a day).
In the case of “SEQ ID NO 26 (CFGRKMDRISSVSGLGC; disulfide 1-17)”, the “Diagnostic impression on skin after application” value with skin, affected site (setting [7]) was “After 2 minutes, remitted”.
On the same count and under the same terms, the value for “SEQ ID NO 39 (CFSRKMDRISSSSGLGC; disulfide 1-17)” was “After 3 minutes, nodes were flattened”.
With “Ser-Pro-Lys-Met-Val-Gln-Gly-Ser-Gly-Cys-Phe-Gly-Arg-Lys-Met-Asp-Arg-Ile-Ser-Ser-Ser-Ser-Gly-Le u-Gly-Cys-Lys-Val-Leu-Arg-Arg-His [BNP, reference compound]”, in assay [3], the “Changes in subjective symptoms” value was “No subjective remission of skin” and the Post-application symptoms result is “No remission of skin desiccation”.
